This assay concerns the target T1, GLUT1 (Homo sapiens, UniProt P11166).
T1 construct: endogenous in cells
T1 sequence (P11166 1-492): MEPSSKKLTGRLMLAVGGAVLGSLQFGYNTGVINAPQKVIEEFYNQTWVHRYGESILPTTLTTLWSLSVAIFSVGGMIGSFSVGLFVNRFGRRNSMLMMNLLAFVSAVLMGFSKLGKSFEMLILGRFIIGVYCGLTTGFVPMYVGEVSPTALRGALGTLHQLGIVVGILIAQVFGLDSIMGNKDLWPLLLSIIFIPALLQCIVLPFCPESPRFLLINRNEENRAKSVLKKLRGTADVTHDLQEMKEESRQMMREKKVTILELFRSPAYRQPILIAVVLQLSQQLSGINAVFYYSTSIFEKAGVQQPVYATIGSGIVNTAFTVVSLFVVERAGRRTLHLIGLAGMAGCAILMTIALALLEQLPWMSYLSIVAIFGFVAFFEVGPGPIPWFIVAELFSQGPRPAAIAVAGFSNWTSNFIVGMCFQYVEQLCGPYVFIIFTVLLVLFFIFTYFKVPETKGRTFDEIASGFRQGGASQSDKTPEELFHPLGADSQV
Description: Indirect measurement of GLUT activity by quantification of intracellular ATP levels (glucose induced ATP increase). The note with it: DLD1 cells; 1 mM glucose, 1 uM Rotenone, 15 min; standardized to cytochalasin B IC50 values; read-out: IC50 regarding glucose induced ATP increase (GLUT1 inhibition). The class given is cell-based. An excerpt: It is well known that a combination of small-molecule inhibitors of mitochondrial electron transport chain and glucose catabolism synergistically suppress ATP production and impair cellular viability (Ulanovskaya et al., 2008, 2011; Liu, et al. 2001). We therefore used DLD1 or CHO-K1 cells in combination with an oxidative phosphorylation inhibitor to identify GLUT inhibitors. Cell lines were maintained in DMEM medium supplemented with 10% FCS and 1% Penicillin-Streptomycin solution and 2% Glutamax. The cells were treated with trypsin and seeded into 384 plates at a density of 4000 cells/well. The cells were then cultured overnight in glucose free media containing 1% FCS to reduce intracellular ATP levels. After 24 h the cells were incubated at 37° C. containing the appropriate glucose or in case of GLUT2 fructose concentration (1 mM and 30 mM respectively) with or without compounds and 1 uM Rotenone for 15 min. The CellTiter-Glo® Luminescent Cell Viability Assay from Promega was then used to measure ATP levels. Compounds able to reduce the ATP Levels within 15 min of glucose application were considered to be glucose uptake inhibitors.

As a reminder, the IC50 is the midpoint of a concentration-inhibition curve.

Turning to `O=C(Nc1cn(Cc2ccc(F)cc2)nc1C(F)(F)F)c1cc(C(F)(F)F)nc2ccc(Br)cc12` [Example 31, 6-bromo-N-[1-(4-fluorobenzyl)-3-(trifluoromethyl)-1H-pyrazol-4-yl]-2-(trifluoromethyl)quinoline-4-carboxamide], the IC50 is 1180 nM.
The same measure for `O=C(Nc1cn(Cc2ccc(F)cc2)nc1C(F)(F)F)c1cc(C(F)(F)F)nc2c(Cl)cc(Cl)cc12` [Example 32, 6,8-dichloro-N-[1-(4-fluorobenzyl)-3-(trifluoromethyl)-1H-pyrazol-4-yl]-2-(trifluoromethyl)quinoline-4-carboxamide]: 763 nM; for `Cc1ccc2nc(C)cc(C(=O)Nc3cn(Cc4ccc(F)cc4)nc3C(F)(F)F)c2c1` [Example 33, N-[1-(4-fluorobenzyl)-3-(trifluoromethyl)-1H-pyrazol-4-yl]-2,6-dimethylquinoline-4-carboxamide]: 183 nM.
The same measure for `O=C(Nc1cn(Cc2ccc(F)cc2)nc1C(F)(F)F)c1cc(C(F)(F)F)nc2cc(F)c(F)cc12` [Example 34, 6,7-difluoro-N-[1-(4-fluorobenzyl)-3-(trifluoromethyl)-1H-pyrazol-4-yl]-2-(trifluoromethyl)quinoline-4-carboxamide]: 2040 nM; for `N#Cc1ccc(Cn2cc(NC(=O)c3cc(C(N)=O)nc4cc(F)c(Cl)cc34)c(C(F)(F)F)n2)cc1` [Example 35, 6-chloro-N^4-[1-(4-cyanobenzyl)-3-(trifluoromethyl)-1H-pyrazol-4-yl]-7-fluoroquinoline-2,4-dicarboxamide]: 4.4 nM; for `N#Cc1ccc(Cn2cc(NC(=O)c3cc(C(F)(F)F)nc4ccc(Br)cc34)c(C(F)(F)F)n2)cc1` [Example 36, 6-bromo-N-[1-(4-cyanobenzyl)-3-(trifluoromethyl)-1H-pyrazol-4-yl]-2-(trifluoromethyl)quinoline-4-carboxamide]: 84 nM.
Regarding `COc1cc(C(=O)Nc2cn(Cc3ccc(C#N)cc3)nc2C(F)(F)F)c2ccccc2n1` [Example 37, N-[1-(4-cyanobenzyl)-3-(trifluoromethyl)-1H-pyrazol-4-yl]-2-methoxyquinoline-4-carboxamide], the IC50 is 179 nM.
As for `N#Cc1ccc(Cn2cc(NC(=O)c3cc(C(N)=O)nc4ccccc34)c(C(F)(F)F)n2)cc1` [Example 39, N^4-[1-(4-cyanobenzyl)-3-(trifluoromethyl)-1H-pyrazol-4-yl]quinoline-2,4-dicarboxamide], the IC50 came to 20 nM.
With `NC(=O)c1cc(C(=O)Nc2cn(Cc3ccncc3)nc2C(F)(F)F)c2ccccc2n1` [Example 41, N^4-[1-(pyridin-4-ylmethyl)-3-(trifluoromethyl)-1H-pyrazol-4-yl]quinoline-2,4-dicarboxamide], the IC50 was 422 nM.
For `CS(=O)(=O)c1ccc(Cn2cc(NC(=O)c3cc(C(N)=O)nc4ccccc34)c(C(F)(F)F)n2)cc1` [Example 42, N^4-{1-[4-(methylsulfonyl)benzyl]-3-(trifluoromethyl)-1H-pyrazol-4-yl}quinoline-2,4-dicarboxamide] the value was 61 nM; for `CS(=O)(=O)c1ccc(Cn2cc(NC(=O)c3cc(C(F)(F)F)nc4ccc(Br)cc34)c(C(F)(F)F)n2)cc1` [Example 43, 6-bromo-N-{1-[4-(methylsulfonyl)benzyl]-3-(trifluoromethyl)-1H-pyrazol-4-yl}-2-(trifluoromethyl)quinoline-4-carboxamide], 440 nM; for `CS(=O)(=O)c1ccc(Cn2cc(NC(=O)c3cc(C(N)=O)nc4cc(F)c(Cl)cc34)c(C(F)(F)F)n2)cc1` [Example 44, 6-chloro-7-fluoro-N^4-{1-[4-(methylsulfonyl)benzyl]-3-(trifluoromethyl)-1H-pyrazol-4-yl}quinoline-2,4-dicarboxamide], 11 nM.
As for `CS(=O)(=O)c1ccc(Cn2cc(NC(=O)c3cc(C(N)=O)nc4cc(F)ccc34)c(C(F)(F)F)n2)cc1` [Example 45, 7-fluoro-N^4-{1-[4-(methylsulfonyl)benzyl]-3-(trifluoromethyl)-1H-pyrazol-4-yl}quinoline-2,4-dicarboxamide], the IC50 worked out at 126 nM.
On to `COc1ccc(Cn2cc(NC(=O)c3cc(C(N)=O)nc4cc(F)c(Cl)cc34)c(C(F)(F)F)n2)cc1` [Example 46, 6-chloro-7-fluoro-N^4-[1-(4-methoxybenzyl)-3-(trifluoromethyl)-1H-pyrazol-4-yl]quinoline-2,4-dicarboxamide], for which the IC50 came to 4.7 nM.
The same measure for `COc1ccc(Cn2cc(NC(=O)c3cc(C(F)(F)F)nc4ccc(Br)cc34)c(C(F)(F)F)n2)cc1` [Example 47, 6-bromo-N-[1-(4-methoxybenzyl)-3-(trifluoromethyl)-1H-pyrazol-4-yl]-2-(trifluoromethyl)quinoline-4-carboxamide]: 138 nM; for `COc1ccc(Cn2cc(NC(=O)c3cc(OC)nc4ccccc34)c(C(F)(F)F)n2)cc1` [Example 48, 2-methoxy-N-[1-(4-methoxybenzyl)-3-(trifluoromethyl)-1H-pyrazol-4-yl]quinoline-4-carboxamide]: 193 nM.
For `COc1ccc(Cn2cc(NC(=O)c3cc(C(N)=O)nc4ccccc34)c(C(F)(F)F)n2)cc1` [Example 49, N^4-[1-(4-methoxybenzyl)-3-(trifluoromethyl)-1H-pyrazol-4-yl]quinoline-2,4-dicarboxamide] the value was 4.1 nM; for `COc1ccc(Cn2cc(NC(=O)c3cc(C(N)=O)nc4cc(F)ccc34)c(C(F)(F)F)n2)cc1` [Example 50, 7-fluoro-N^4-[1-(4-methoxybenzyl)-3-(trifluoromethyl)-1H-pyrazol-4-yl]quinoline-2,4-dicarboxamide], 3.9 nM.
The same measure for `Cc1nn(Cc2ccc(C#N)cc2)cc1NC(=O)c1cc(C2CC2)nc2ccc(Br)cc12` [Example 51, 6-bromo-N-[1-(4-cyanobenzyl)-3-methyl-1H-pyrazol-4-yl]-2-cyclopropylquinoline-4-carboxamide]: 5.2 nM.
In the case of `Cc1nn(Cc2ccc(C#N)cc2)cc1NC(=O)c1cc(C(N)=O)nc2cc(F)ccc12` [Example 52, N^4-[1-(4-cyanobenzyl)-3-methyl-1H-pyrazol-4-yl]-7-fluoroquinoline-2,4-dicarboxamide], the IC50 was found to be 3.1 nM.
The same measure for `Cc1nn(Cc2ccc(C#N)cc2)cc1NC(=O)c1cc(C(N)=O)nc2cc(F)c(Cl)cc12` [Example 53, 6-chloro-N^4-[1-(4-cyanobenzyl)-3-methyl-1H-pyrazol-4-yl]-7-fluoroquinoline-2,4-dicarboxamide]: 4 nM.
For `Cc1ccc(Cn2cc(NC(=O)c3cc(C(N)=O)nc4ccccc34)c(C)n2)cc1` [Example 54, N^4-[3-methyl-1-(4-methylbenzyl)-1H-pyrazol-4-yl]quinoline-2,4-dicarboxamide] the value was 13 nM; for `Cc1nn(Cc2ccc(F)c(F)c2)cc1NC(=O)c1cc(C(N)=O)nc2ccccc12` [Example 55, N^4-[1-(3,4-difluorobenzyl)-3-methyl-1H-pyrazol-4-yl]quinoline-2,4-dicarboxamide], 83 nM; for `Cc1nn(Cc2cccc(F)c2)cc1NC(=O)c1cc(C(N)=O)nc2ccccc12` [Example 56, N^4-[1-(3-fluorobenzyl)-3-methyl-1H-pyrazol-4-yl]quinoline-2,4-dicarboxamide], 193 nM.
As to `Cc1nn(CC2CCCCC2)cc1NC(=O)c1cc(C(N)=O)nc2ccccc12` [Example 57, N^4-[1-(cyclohexylmethyl)-3-methyl-1H-pyrazol-4-yl]quinoline-2,4-dicarboxamide], the IC50 is 556 nM.
For `Cc1nn(Cc2ccncc2)cc1NC(=O)c1cc(C(N)=O)nc2ccccc12` [Example 58, N^4-[3-methyl-1-(pyridin-4-ylmethyl)-1H-pyrazol-4-yl]quinoline-2,4-dicarboxamide] the value was 702 nM.
The same measure for `CCc1nn(Cc2ccc(C#N)cc2)cc1NC(=O)c1cc(C(N)=O)nc2cc(F)ccc12` [Example 59, N^4-[1-(4-cyanobenzyl)-3-ethyl-1H-pyrazol-4-yl]-7-fluoroquinoline-2,4-dicarboxamide]: 34 nM.
For `CCc1nn(Cc2ccc(C#N)cc2)cc1NC(=O)c1cc(C(N)=O)nc2ccccc12` [Example 60, N^4-[1-(4-cyanobenzyl)-3-ethyl-1H-pyrazol-4-yl]quinoline-2,4-dicarboxamide] the value was 23 nM; for `CC(C)c1nn(Cc2ccc(C#N)cc2)cc1NC(=O)c1cc(C(N)=O)nc2cc(F)ccc12` [Example 62, N^4-[1-(4-cyanobenzyl)-3-isopropyl-1H-pyrazol-4-yl]-7-fluoroquinoline-2,4-dicarboxamide], 120 nM.

(Values after patent US20170226081A1, “GLUCOSE TRANSPORT INHIBITORS” (Bayer Pharma Aktiengesellschaft, priority 2014, published 2017).)
